In brackets after ≈: the same amount, converted by molar mass.
What was measured:
Assay type in all cases: cell-based
[1] = test system: Trypanosoma brucei gambiense strain Feo bloodstream forms; assay: Antitrypanosomal assay (resazurin); details: for IC50: Trypanosoma brucei, GAMBIENSE, 72 h incubation, read-out: IC50 T. brucei gambiense
Method: page 10: independent experiments. Chloroquine diphosphate (Sigma–Aldrich) was used as antimalarial drug control. Antitrypanosomal activities: Bloodstream forms of Trypanosoma brucei gambiense strain Feo were cultured in HMI9 medium supplemented with 10% FCS at 37 °C under an atmosphere of 5% CO2. Antitrypanosomal assays were performed as previously described. In all experiments, log-phage cell cultures were harvested by centrifugation at 3,000g and immediately used. Drug assays were based on the conversion of a redox-sensitive dye (resazurin) to a fluorescent product by viable cells. Drug stock solutions were prepared in pure DMSO. […] After a 72 h incubation, resazurin solution was added in each well at the final concentration of 45 µM. Fluorescence was measured at 530 nm excitation and 590 nm emission wavelengths after a further 4 h incubation. Each inhibitor concentration was tested in triplicate. The percentage of inhibition of parasite growth rate was calculated by comparing the fluorescence of parasites maintained in the presence of drug to that in the absence of drug. DMSO was used as a control. IC50s were determined from the dose–response curves with drug concentrations ranging from 100 µM to 50 nM. Pentamidine was used as antitrypanosomal drug control. MIC determination: Indicator strains were obtained from the German Collection of Microorganisms and Cell Cultures (Deutsche Sammlung für Mikroorganismen und Zellkulturen, DSMZ) or were part of our internal strain collection. All microorganisms were handled under standard conditions recommended by the depositor. Overnight S10

[2] = test system: HCT-116 human colon carcinoma cells; assay: Cytotoxicity, growth inhibition (MTT); details: Homo sapiens, HCT-116, 120 h, read-out: IC50: half inhibitory concentration, HCT-116
Method: (§1) The cytotoxic activity of aurachin D (4) and analogues 9–11 and 17–19 was evaluated in growth inhibition experiments on mammalian cell lines (Table 2). After 5 days treatment, half inhibitory concentrations (IC50) were determined for human HCT-116 colon carcinoma and human K562 myelogenous leukemia cells. […]
(§2) was further incubated for 1.5 h. The medium was then discarded and 100 µL 2-propanol/10 N HCl (250:1) was added in order to dissolve formazan granules. The absorbance at 570 nm was measured using a microplate reader (EL808, Bio-Tek Instruments Inc.) and cell viability was expressed as a percentage relative to the respective solvent control. […]

[3] = test system: K562 myelogenous leukemia cells; assay: Cytotoxicity, growth inhibition (MTT); details: Homo sapiens, K562, 120 h; 5 days treatment; triplicate, mean ±SD; read-out: IC50: half inhibitory concentration, K562
Method: as §1, §2

[4] = test system: Plasmodium falciparum FcB1 (chloroquine-resistant); assay: In vitro antiplasmodial assay ([3H]-hypoxanthine incorporation); details: for IC50: Plasmodium falciparum, FCB1, triplicate (except compound 24), mean ±SD, read-out: IC50 P. falciparum FcB1; for antiplasmodial selectivity index: Vero cytotoxic concentration / concentration active on P. falciparum FcB1
Method: In vitro antiplasmodial assays: The chloroquine-resistant strain FcB1/Colombia of Plasmodium falciparum was maintained in vitro on human erythrocytes in RPMI 1640 medium supplemented by 8% (v/v) heat-inactivated human serum, at 37 °C, under an atmosphere of 3% CO2, 6% O2, and 91% N2. In vitro drug susceptibility assays was measured by [3H]-hypoxanthine incorporation as described. Drugs were prepared in DMSO at a 10 mg/mL concentration. Compounds were serially diluted two-fold with 100 µL culture medium in 96-well plates. Asynchronous parasite cultures (100 µL, 1% parasitaemia and 1% final hematocrite) were then added to each well and incubated for 24 h at 37 °C prior to the addition of 0.5 µCi of [3H]- hypoxanthine (GE Healthcare, France, 1 to 5 Ci·mmol/mL) per well. After a further incubation of 24 h, plates were frozen and thawed. Cell lysates were then collected onto glass-fiber filters and counted in a liquid scintillation spectrometer. The growth inhibition for each drug concentration was determined by comparison of the radioactivity incorporated in the treated culture with that in the control culture maintained on the same plate. The concentration causing 50% growth inhibition (IC50) was obtained from the drug concentration–response curve and the results were expressed as the mean values ± standard deviations determined from several […]
independent experiments. Chloroquine diphosphate (Sigma–Aldrich) was used as antimalarial drug control. […]

[5] = test system: Staphylococcus aureus DSM11822 (MRSA); assay: MIC determination; details: duplicate, mean ±SD
Method: (§3) MIC determination: Indicator strains were obtained from the German Collection of Microorganisms and Cell Cultures (Deutsche Sammlung für Mikroorganismen und Zellkulturen, DSMZ) or were part of our internal strain collection. All microorganisms were handled under standard conditions recommended by the depositor. Overnight […]
(§4) cultures of bacteria were prepared in EBS medium (0.5% casein peptone, 0.5% proteose peptone, 0.1% meat peptone, 0.1% yeast extract; pH 7.0). Yeasts and molds were grown in Myc medium (1% phytone peptone, 1% glucose, 50 mM
(§5) HEPES, pH 7.0). The overnight cultures of microorganisms were diluted to OD600 0.01 (bacteria) or 0.05 (yeasts/molds) in the respective growth medium. Serial dilutions of compounds were prepared as duplicates in sterile 96-well plates. The cell suspension was added and microorganisms were grown overnight on a microplate shaker (900 rpm, 30 °C or 37 °C). Growth inhibition was assessed by measuring the OD600 on a plate reader (POLARstar, BMG Labtech). MIC50 values were determined as averages relative to respective control samples by sigmoidal curve fitting. […]

[6] = test system: Escherichia coli DH5α (wt); assay: MIC determination; details: duplicate, mean ±SD
Method: as §3, §4, §5

[7] = test system: Klebsiella pneumoniae DSM30104; assay: MIC determination; details: duplicate, mean ±SD
Method: as §3, §4, §5

[8] = test system: Micrococcus luteus; assay: MIC determination; details: duplicate, mean ±SD
Method: as §3, §4, §5

[9] = test system: Staphylococcus aureus Newman (MSSA); assay: MIC determination; details: duplicate, mean ±SD
Method: as §3, §4, §5

[10] = test system: Bacillus subtilis DSM10; assay: MIC determination; details: duplicate, mean ±SD; for MIC50: Bacillus subtilis, DSM10
Method: as §3, §4, §5

[11] = test system: Escherichia coli (TolC); assay: MIC determination; details: read-out: MIC50 Escherichia coli (TolC)
Method: as §3, §4, §5

Row | Compound | IC50 [1] [µg/mL] | antitrypanosomal selectivity index ([1]; Vero cytotoxic concentration / concentration active on T. brucei gambiense) | IC50 [2] [µg/mL] | IC50 [3] [µg/mL] | IC50 [4] [µg/mL] | antiplasmodial selectivity index [4] | MIC50 [5] [µg/mL] | MIC50 [6] [µg/mL] | MIC50 [7] [µg/mL] | MIC50 [8] [µg/mL] | MIC50 [9] [µg/mL] | MIC50 [10] [µg/mL] | MIC50 [11] [µg/mL] | MIC50 Bacillus subtilis DSM10 [10]
1 | CC(C)=CCC/C(C)=C/CC/C(C)=C/Cc1c(C)[nH]c2ccccc2c1=O [compound 4, aurachin D] | 0.4 (≈ 1.1 µM) | 35 | 2.23 ± 0.76 (≈ 6.13 µM) | 0.65 ± 0.16 (≈ 1.79 µM) | 0.04 ± 0.02 (≈ 0.11 µM) | 345 | 2.1 ± 0.19 (≈ 5.78 µM) | > 64 | > 64 | 1.47 ± 0.12 (≈ 4.04 µM) | 5.46 ± 1.05 (≈ 15 µM) | < 0.1 | 8.36 ± 1 (≈ 23 µM) | –
2 | CC(C)=CCC/C(C)=C/Cc1c(C)[nH]c2ccccc2c1=O [compound 9] | 1.5 (≈ 5.08 µM) | – | 2.52 ± 0.48 (≈ 8.53 µM) | 1.5 ± 0.31 (≈ 5.08 µM) | 0.07 ± 0.02 (≈ 0.237 µM) | 345 | 4.5 ± 0.74 (≈ 15.2 µM) | > 64 | > 64 | 2.59 ± 0.34 (≈ 8.77 µM) | 3.96 ± 0.49 (≈ 13.4 µM) | < 0.1 | 1.41 ± 0.45 (≈ 4.77 µM) | –
3 | CC(C)=CCCC(C)=CCCC(C)=CCc1c(C)[nH]c2ccc3ccccc3c2c1=O [compound 17] | 0.8 (≈ 1.93 µM) | – | > 10 | ~10 (≈ 24.2 µM) | 0.51 ± 0.18 (≈ 1.23 µM) | – | > 64 | > 64 | > 64 | > 64 | > 64 | > 64 | > 64 | –
4 | COc1ccc2[nH]c(C)c(CC=C(C)CCC=C(C)CCC=C(C)C)c(=O)c2c1 [compound 18] | 1.6 (≈ 4.07 µM) | – | 1.64 ± 0.47 (≈ 4.17 µM) | 1.15 ± 0.22 (≈ 2.92 µM) | 0.2 ± 0.04 (≈ 0.508 µM) | – | > 64 | > 64 | > 64 | 49.2 ± 3.94 (≈ 125 µM) | > 64 | 6.75 ± 0.6 (≈ 17.2 µM) | > 64 | significant growth inhibitory effect
5 | CC(C)=CCCC(C)=CCCC(C)=CCc1c(C)[nH]c2cc3c(cc2c1=O)OCO3 [compound 19] | > 10 | – | > 10 | > 10 | 0.42 ± 0.09 (≈ 1.03 µM) | – | > 64 | > 64 | > 64 | > 64 | 34.6 ± 5.13 (≈ 84.8 µM) | 4.66 ± 0.5 (≈ 11.4 µM) | > 64 | significant growth inhibitory effect

From article PMC3740496, “Synthesis and biological activities of the respiratory chain inhibitor aurachin D and new ring versus chain analogues” (Beilstein Journal of Organic Chemistry, 2013)
